This is an account of results in ChEMBL document CHEMBL1139525, “Targeting and inhibition of cell growth by an engineered dendritic nanodevice” (J Med Chem, 2005).

Molecules are shown by their SMILES.

A short description of test [1]: Dissociation constant against folic acid receptor (FAR); Value ranges from 0.1-1 nM. Also noted: species or system Homo sapiens.
The subject of test [2] is KB. Nature of the test: Concentration required to completely block the uptake of either G5-FI-FA or G5-FI-FA-MTX dendrimer (30 nM) in FAR expressing KB cells. Type of test: functional, cell-based. Conditions: Homo sapiens.

With `Nc1nc(=O)c2nc(CNc3ccc(C(=O)N[C@@H](CCC(=O)O)C(=O)O)cc3)cnc2[nH]1` [FOLIC ACID], binding in test [1] was put at a Kd of 1 nM. The Concentration in test [2] was found to be 50 µM.
